Data on 19 molecules can be found in paper PMC7115408 (European Journal of Medicinal Chemistry, 2014).

The subject of one test is SARS-CoV. Nature of the test: microbe, parasite or virus in culture. It counts as cell-based, severe acute respiratory syndrome coronavirus (SARS-CoV). Particulars: for EC50: read-out: SARS-CoV EC50.
The test system of a further test is HBV. Format: cell-based. Particulars: read-out: HBV EC50; DNA virion assay.
A further test has as its system HCV. Format: cell-based. The following applies: read-out: HCV EC50.
Another test relates to HSV-1. Nature of the test: In vitro antiviral screening, cytopathic effect and neutral red assays. The following applies: read-out: HSV-1 EC50. Format: cell-based. (Damage to the host cells serves as the signal in cytopathic effect assays.)
The next test has as its system influenza A virus H3N2. Nature of the test: Anti influenza screening, cytopathic effect and cytotoxicity assays. The following applies: read-out: Influenza Type-A H3N2 EC50. Format: cell-based.
The subject of the next test is influenza B virus. Described as above. It counts as cell-based. Particulars: read-out: Influenza Type-B EC50.
The subject of another test is influenza A virus H5N1. Format: cell-based. The following applies: for EC50: read-out: Influenza Type-A H5N1 EC50.
Another test concerns influenza A virus H1N1. The experiment in a line: Anti influenza screening, cytopathic effect and cytotoxicity assays. It counts as cell-based. Particulars: read-out: Influenza Type-A H1N1 EC50.
Another test has as its system WNV. The experiment in a line: In vitro antiviral screening, visual and neutral red tests. Particulars: read-out: WNV EC50. It counts as cell-based, West Nile virus (WNV).
A further test relates to HSV-2. Nature of the test: In vitro antiviral screening, cytopathic effect and neutral red assays. The following applies: read-out: HSV-2 EC50. It counts as cell-based.
For another test, the system named is Bacillus subtilis. Nature of the test: Well diffusion zone of inhibition, antibacterial. Format: cell-based. Particulars: for Antibacterial activity against B. subtilis (in words): zone of inhibition compared to Ampicillin; for zone of inhibition at 250 µg/disc: Bacillus subtilis, 48 h, read-out: Diameter of inhibition zone, Bacillus subtilis. (A growth-free zone around the sample is the usual read-out of agar diffusion tests.)

In the next test the test system is Escherichia coli. Nature of the test: Well diffusion zone of inhibition, antibacterial. Format: cell-based. Particulars: for zone of inhibition at 250 µg/disc: Escherichia coli, 48 h, read-out: Diameter of inhibition zone, Escherichia coli.
The next test relates to Asperigillus niger. The experiment in a line: Well diffusion zone of inhibition, antifungal. It counts as cell-based. The following applies: Aspergillus niger, read-out: Diameter of inhibition zone, Asperigillus niger.

Entries after “also recorded” stand apart in the source; their conditions may differ. Like-named read-outs stand apart in the source and are kept apart here.

By EC50 is commonly meant the midpoint of the concentration-response curve. On to “2-Oxo-4,6-di(2-thienyl)nicotinonitrile [Compound 1c]”, for which the EC50 in the test with SARS-CoV is above 100 µM; with HBV, above 100 µM; in the test on HCV, above 100 µM; in the test on HSV-1, above 12 µM; with influenza A virus H3N2, 16 µM; in the test on influenza B virus, above 100 µM. Moreover, the EC50 is above 100 µM in the test on influenza A virus H5N1, 32 µM with influenza A virus H1N1, above 4.6 µM in the test with WNV and above 12 µM with HSV-2.
As for “4-(4-Chlorophenyl)-2-oxo-6-(2-pyridyl)nicotinonitrile [Compound 1a]”, the EC50 with SARS-CoV was above 0.32 µM; in the test on HBV it was above 100 µM; with HCV, above 100 µM; in the test on HSV-1, above 300 µM; in the test on influenza A virus H3N2, above 2.6 µM; with influenza B virus, above 36 µM. For the same molecule, the EC50 is above 100 µM in the test on influenza A virus H5N1, 26 µM in the test on influenza A virus H1N1, above 2.2 µM in the test on WNV and above 300 µM in the test on HSV-2.
For the molecule “4-(4-Isopropylphenyl)-2-oxo-6-(2-thienyl)nicotinonitrile [Compound 1b]”, the EC50 in the test with SARS-CoV was above 26 µM; with HBV it was above 100 µM; in the test on HCV, above 100 µM; in the test on HSV-1 it was above 300 µM; in the test on influenza A virus H3N2, 22 µM; in the test on influenza B virus it was 46 µM. The results for the EC50 with influenza A virus H5N1, with WNV and in the test on HSV-2 were 32 µM, above 2.2 µM and above 300 µM, respectively.
On to `CC(=O)OC[C@H]1O[C@@H](n2c(-c3ccccn3)cc(-c3ccc(Cl)cc3)c(C#N)c2=O)[C@H](OC(C)=O)[C@@H](OC(C)=O)[C@@H]1OC(C)=O` [Compound 2aAc], for which, in the test with SARS-CoV, the “Anti SARS-CoV activity (in words)” value is given as “slightly active by visual, but not neutral red test; also recorded: active”. In the test with influenza A virus H5N1, the “Anti influenza A (H5N1) activity (in words)” value is “good and slightly active and active”.
As for `CC(C)c1ccc(-c2cc(-c3cccs3)n([C@@H]3O[C@H](CO)[C@@H](O)[C@H](O)[C@H]3O)c(=O)c2C#N)cc1` [Compound 2b, 1-(β-D-Glucopyranosyl)-4-(4-isopropylphenyl)-2-oxo-6-(2-thienyl)nicotinonitrile], the “Antibacterial activity against B. subtilis (in words)” value in the test with Bacillus subtilis was “moderate antibacterial activity”.
On the same count and under the same terms, with `CC(=O)OC[C@H]1O[C@@H](n2c(-c3cccs3)cc(-c3ccc(C(C)C)cc3)c(C#N)c2=O)[C@H](OC(C)=O)[C@@H](OC(C)=O)[C@@H]1OC(C)=O` [Compound 2bAc] the entry was “lower antibacterial activity”.
What is called zone of inhibition is the size of the clear area around the sample on an inoculated plate. `N#Cc1c(-c2cccs2)cc(-c2cccs2)n([C@@H]2O[C@H](CO)[C@@H](O)[C@H](O)[C@H]2O)c1=O` [Compound 2c, 1-(β-D-Glucopyranosyl)-2-oxo-4,6-di(2-thienyl)nicotinonitrile]: the “Antibacterial activity against B. subtilis (in words)” value in the test with Bacillus subtilis is on record as “lower antibacterial activity”. The zone of inhibition at 250 µg/disc in the test with Escherichia coli is 0 mm; with Asperigillus niger, 8 mm.
Regarding `CC(=O)OC[C@H]1O[C@@H](n2c(-c3cccs3)cc(-c3cccs3)c(C#N)c2=O)[C@H](OC(C)=O)[C@@H](OC(C)=O)[C@@H]1OC(C)=O` [Compound 2cAc], the EC50 with SARS-CoV (Severe acute respiratory syndrome coronavirus) was above 32 µM. For the same molecule, in the test with Bacillus subtilis, the “Antibacterial activity against B. subtilis (in words)” value is given as “lower antibacterial activity”.
As for `N#Cc1c(-c2ccc(Cl)cc2)cc(-c2ccccn2)n([C@@H]2O[C@H](CO)[C@H](O)[C@H](O)[C@H]2O)c1=O` [Compound 3a, 4-(4-Chlorophenyl)-1-(β-D-galactopyranosyl)-2-oxo-6-(2-pyridyl)nicotinonitrile], the “Antibacterial activity against B. subtilis (in words)” value in the test on Bacillus subtilis is recorded as “lower antibacterial activity”.
Consider `CC(=O)OC[C@H]1O[C@@H](n2c(-c3ccccn3)cc(-c3ccc(Cl)cc3)c(C#N)c2=O)[C@H](OC(C)=O)[C@@H](OC(C)=O)[C@H]1OC(C)=O` [Compound 3aAc], for which, in the test on Bacillus subtilis, the zone of inhibition at 250 µg/disc was 1 mm and the “Antibacterial activity against B. subtilis (in words)” value is “lower antibacterial activity”.
Take `CC(C)c1ccc(-c2cc(-c3cccs3)n([C@@H]3O[C@H](CO)[C@H](O)[C@H](O)[C@H]3O)c(=O)c2C#N)cc1` [Compound 3b, 1-(β-D-Galactopyranosyl)-4-(4-isopropylphenyl)-2-oxo-6-(2-thienyl)nicotinonitrile]: the “Antibacterial activity against B. subtilis (in words)” value in the test on Bacillus subtilis was “lower antibacterial activity”. In the test on Asperigillus niger, the zone of inhibition at 250 µg/disc was 8 mm.
Consider `CC(=O)OC[C@H]1O[C@@H](n2c(-c3cccs3)cc(-c3ccc(C(C)C)cc3)c(C#N)c2=O)[C@H](OC(C)=O)[C@@H](OC(C)=O)[C@H]1OC(C)=O` [Compound 3bAc], for which, in the test on Bacillus subtilis, the zone of inhibition at 250 µg/disc turned out to be 1 mm and the “Antibacterial activity against B. subtilis (in words)” value was “lower antibacterial activity”. In addition, in the test on Escherichia coli, the zone of inhibition at 250 µg/disc was 0 mm.
Take `N#Cc1c(-c2cccs2)cc(-c2cccs2)n([C@@H]2O[C@H](CO)[C@H](O)[C@H](O)[C@H]2O)c1=O` [Compound 3c, 1-(β-D-Galactopyranosyl)-2-oxo-4,6-di(2-thienyl)-nicotinonitrile]: the “Antibacterial activity against B. subtilis (in words)” value with Bacillus subtilis was “lower antibacterial activity”.
`N#Cc1c(-c2ccc(Cl)cc2)cc(-c2ccccn2)nc1OCCCCO` [Compound 5, 4-(4-Chlorolphenyl)-2-(4-hydroxybutyloxy)-6-(2-pyridyl)nicotinonitrile]: the “Antibacterial activity against B. subtilis (in words)” value in the test with Bacillus subtilis is given as “lower antibacterial activity”.
Take `CC(=O)OCCCCOc1nc(-c2ccccn2)cc(-c2ccc(Cl)cc2)c1C#N` [Compound 5Ac]: the “Antibacterial activity against B. subtilis (in words)” value in the test with Bacillus subtilis is “lower antibacterial activity”.
As to `CC(C)c1ccc(-c2cc(-c3cccs3)n(COCCO)c(=O)c2C#N)cc1` [Compound 7b, 1-[(2-Hydroxyethoxy)methyl]-4-(4-isopropylphenyl)-2-oxo-6-(2-thienyl)nicotinonitrile], the “Antibacterial activity against B. subtilis (in words)” value with Bacillus subtilis was “good activity”. Moreover, the “Antibacterial activity against E. coli (in words)” value in the test with Escherichia coli (zone of inhibition) is “no activity”.
Consider `CC(=O)OCCOCn1c(-c2cccs2)cc(-c2cccs2)c(C#N)c1=O` [Compound 7cAc, 1-[(2-Acetoxyethoxy)methyl]-2-oxo-4,6-di(2-thienyl)nicotinonitrile], for which the “Antibacterial activity against B. subtilis (in words)” value in the test with Bacillus subtilis is listed as “moderate antibacterial activity”.
The same measure, in the same setting: with `N#Cc1c(-c2ccc(Cl)cc2)cc(-c2ccccn2)n(CCCO)c1=O` [Compound 8a, 4-(4-Chlorolphenyl)-1-(3-hydroxypropyl)-2-oxo-6-(2-pyridyl)nicotinonitrile] the entry was “lower antibacterial activity”; with `C=CCOc1nc(-c2ccccn2)cc(-c2ccc(Cl)cc2)c1C#N` [Compound 9, 2-(Allyloxy)-4-(4-chlorolphenyl)-6-(2-pyridyl)nicotinonitrile], “lower antibacterial activity”.
